Results reported in patent US20250042884A1, “3-ARYLOXYL-3-FIVE-MEMBERED HETEROARYL PROPYLAMINE COMPOUND AND USE THEREOF” (Shanghai Leado Pharmatech Co. Ltd., priority 2018, published 2025).
pIC50: −log10 of the molar value.

Legend:
SH-SY5Y cells = assay: Cytotoxicity test (CCK-8), neurotoxicity; format: cell-based; conditions: Homo sapiens, 72 h
Procedure: In this example, hepatotoxicity and neurotoxicity of compound I-1 and S-duloxetine were detected.
HepG-2 and SH-SY5Y cells were placed in 10 cm dish and cultured at 37° C., 5% CO2 in a cell incubator. Trypsin was used to digest and resuspend cells and cells were counted. The cells were transferred to 96-well plate with 8000 cells in a well (100 μl/well), cultured at 37° C., 5% CO2 in a cell incubator for 24 hrs. A serial of gradient concentration dilutions of compound I-1 (prepared in example 2 of the present invention) with 2-fold dilution were prepared, and the system was 100 μL/well. The supernatant of cell culture system in the 96-well plate was removed on the first day, and fresh-prepared drug concentration system was add into culture plate wells (duplicate wells were set). The cells were cultured at 37° C., 5% CO2 in a cell incubator for 72 h. […] Microplate reader was used to measure the absorbance at 450 nm. Data was processed to calculate cytotoxicity, and IC50 was calculated by GraphPad Prism. […]
A (Dosing): the absorbance of wells containing cells, CCK-8 solution and drug solution.
A (control): the absorbance of wells containing medium and CCK-8 solution and without cells.
A (0 Dosing): the absorbance of wells containing cells and CCK-8 solution but without drug solution […]

C57BL/6 mice = assay: Mice formalin pain model (acute and inflammatory pain); format: in vivo; conditions: for Licking claw time (s) in phase II (10-60 min): hydrochloride salt, blank vehicle 349.55 ± 43.09
Description: 150 C57BL/6 mice (male, 9-week aged) were randomly divided into 15 groups, (each group had 10 mice) for the analgesic activity test of 3 compounds in the mice formalin pain model respectively: the compound I-1 group (compound I-1 prepared in Example 2 whose hydrochloride salt was used in the experiment), the S-duloxetine group (its hydrochloride salt was used in the experiment) and the compound C1 group (the compound C1 prepared in Comparative Example 1, whose hydrochloride salt was used in the experiment). Before the start of experiments, the mice were allowed to adapt to the experimental environment for 72 h with free feeding and drinking water. The test drugs were administrated by intraperitoneal injection at a dosage as follows:
Compound I-1 group: blank vehicle (blank saline control), 0.1 mg/kg, 0.5 mg/kg, 1 mg/kg, 5 mg/kg and 10 mg/kg;
S-duloxetine group: blank vehicle (blank saline control), 1 mg/kg, 5 mg/kg, 10 mg/kg and 20 mg/kg;
Compound C1 group: blank vehicle (blank saline control), 0.1 mg/kg, 0.5 mg/kg, 1 mg/kg, 5 mg/kg and 10 mg/kg.
After administration, the mice were placed in a transparent, ventilated plexiglass cylinder for 1 h, and then 20 μl of 4% formalin solution was injected into the left hind plantar of mice of each group by microinjector, claw pain response in mice were real-time recorded by a mini-camera. The time length of licking left claw were used as an indicator of pain response, licking time in 0-10 min (phase I) and 10-60 min (phase II) were observed and recorded, and the statistical analysis was conducted. The half effective dose (ED50) of 3 compounds were calculated: ED50 referred to the dose of the drug which decreased licking time by half as compared with the blank control group. The smaller the ED50 value was, the lower the effective analgesic dose of the compound was and the better the analgesic effect was.

Sprague-Dawley rats = assay: Rat hot plate pain model (acute pain); format: in vivo; conditions: 30 mg/kg intraperitoneal, hydrochloride salt
Procedure: Sprague-Dawley male, mature and unmated rats were placed at hot and cold plate (product model: PE34, US IITC) with constant 53±0.1° C. Mice with painful response such as licking claw, shaking claw or slightly jumping within 10-30 s were selected, and mice which evaded and jumped were abandoned. […] The test compound was freshly prepared on the day of administration. 0.9% NaCl physiological saline solution was prepared as solvent for later use. Appropriate amount of test compound was added into required volume of physiological saline and fully suspended, and the concentration of prepared drug was 1 mg/ml. […] After administration, the latency of heat pain was measured at 0.5 h, 1 h and 2 h after administration. In order to prevent animals from being scalded on the hot plate, the maximum incubation time was set to 30 s. Maximum possible effect (MPE) % was used to evaluate analgesic effect of each compound, i.e., MPE %=[(Post drug latency−baseline latency)/(30−baseline latency)]×100. MPE % at different time points was recorded.

ICR mice = assay: Mice acetic acid writhing pain model (visceral and inflammatory pain); format: in vivo; conditions: for number of appearance of writhing reactions (visceral pain) within 30 min: 1 h before acetic acid, saline group 49 times
Procedure: Male ICR mice, 22-25 g, were fasted but allowed to drink water freely for 2 h before administration. All ICR mice were weighed and grouped randomly, each group had >10 animals. […] The drug was administrated by gavage based on the weight of mice. 1.5% acetic acid solution (0.1 ml/10 g) was injected intraperitoneally 1 h after administration, and the number of times of visceral pain in each group was observed within 30 min. When concave abdomen, stretched trunk and hind claw, and high buttocks appeared, one number point was recorded. Finally, the number of appearance of the above phenomenon was counted within 30 minutes.

CNCC[C@@H](Oc1cccc2ccoc12)c1cccs1 [Compound I-1, (R)-3-(benzofuran-7-yloxy)-N-methyl-3-(thiophen-2-yl)propyl-1-amine]
pIC50 (SH-SY5Y cells): ~4.00
Licking claw time (s) in phase II (10-60 min) (C57BL/6 mice; 0.1 mg/kg intraperitoneal): 321.55 ± 47.75 s
decrease of licking time in phase II (10-60 min) compared with the blank vehicle (C57BL/6 mice; 0.5 mg/kg intraperitoneal): more than 50%
Licking claw time (s) in phase II (10-60 min) (C57BL/6 mice; 0.5 mg/kg intraperitoneal): 161.25 ± 30.83 s
Licking claw time (s) in phase II (10-60 min) (C57BL/6 mice; 1 mg/kg intraperitoneal): 131.28 ± 23.99 s
Licking claw time (s) in phase II (10-60 min) (C57BL/6 mice; 5 mg/kg intraperitoneal): 87.85 ± 25.15 s
Licking claw time (s) in phase II (10-60 min) (C57BL/6 mice; 10 mg/kg intraperitoneal): 99.08 ± 19.73 s
ED50 times stronger than S-duloxetine (C57BL/6 mice; phase II, mice formalin model): 30.8 times
ED50 times stronger than compound C1 (C57BL/6 mice; phase II, mice formalin model): 8.5 times
MPE % (Sprague-Dawley rats; 0.5 h after administration): 14.51 ± 6.87%
MPE % (Sprague-Dawley rats; 1 h after administration): 38.03 ± 5.66%
MPE % (Sprague-Dawley rats; 2 h after administration): 31.92 ± 6.79%
number of appearance of writhing reactions (visceral pain) within 30 min (ICR mice; 5 mg/kg by gavage): 19 times
number of visceral pain lower than the saline control group (ICR mice; 5 mg/kg by gavage, 19 times vs 49 times): 50%
number of appearance of writhing reactions (visceral pain) within 30 min (ICR mice; 10 mg/kg by gavage): 16 times
